According to publication PMC9574929, “Development of Hydrogen Sulfide-Releasing Carbonic Anhydrases IX- and XII-Selective Inhibitors with Enhanced Antihyperalgesic Action in a Rat Model of Arthritis” (Journal of Medicinal Chemistry, 2022):
Several values for one entry are separate records, joined by “and”; a condition that tells them apart may be missing. Equal values may be shown once.

Tests used:
hCA IV = hCA IV (Homo sapiens, UniProt P22748); assay: Stopped-flow CO2 hydrase assay, hCA IV; settings: selectivity index, ratio of KIs
Chain of hCA IV (P22748 19-312): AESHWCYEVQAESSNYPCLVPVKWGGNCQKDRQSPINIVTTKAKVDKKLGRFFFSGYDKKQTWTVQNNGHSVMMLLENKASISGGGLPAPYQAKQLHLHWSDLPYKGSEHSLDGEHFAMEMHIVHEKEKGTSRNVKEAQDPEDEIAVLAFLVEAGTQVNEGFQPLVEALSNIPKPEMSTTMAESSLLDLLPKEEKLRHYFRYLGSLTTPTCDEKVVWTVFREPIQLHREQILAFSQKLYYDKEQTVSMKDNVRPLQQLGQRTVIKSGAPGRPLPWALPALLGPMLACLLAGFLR
Procedure: (§3) The uncatalyzed rates were determined in the same manner and subtracted from the total observed rates. Stock solutions of inhibitor (0.1 mM) were prepared in distilled-deionized water and dilutions up to 0.01 nM were done thereafter with the assay buffer. […] The inhibition constants were obtained by nonlinear least-squares methods using PRISM 3 and the Cheng–Prusoff equation, as reported earlier,[39] and represent the mean from at least three different determinations.

hCA XII = hCA XII (Homo sapiens, UniProt O43570); assay: Stopped-flow CO2 hydrase assay, hCA XII; settings: selectivity index, ratio of KIs
Chain of hCA XII (O43570 25-354): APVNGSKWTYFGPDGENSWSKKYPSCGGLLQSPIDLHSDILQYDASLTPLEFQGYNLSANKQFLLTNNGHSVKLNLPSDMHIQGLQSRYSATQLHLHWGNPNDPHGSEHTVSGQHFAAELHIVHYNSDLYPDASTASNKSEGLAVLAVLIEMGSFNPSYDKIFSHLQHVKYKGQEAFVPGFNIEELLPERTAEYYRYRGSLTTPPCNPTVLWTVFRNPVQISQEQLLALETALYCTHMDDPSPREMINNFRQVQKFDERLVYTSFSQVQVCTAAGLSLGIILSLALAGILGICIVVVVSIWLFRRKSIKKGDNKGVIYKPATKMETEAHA
Procedure: as §3

[1] = system: rat model of arthritis induced by the intra-articular injection of complete Freund's adjuvant (CFA); assay: Incapacitance test, CFA-induced arthritis; type: in vivo; settings: for reduction of spontaneous pain, Incapacitance test: single per os, 1 to 30 mg/kg, day 14 after CFA
Procedure: (§1) Articular damage was induced by injection of Complete Freund’s Adjuvant (CFA; Sigma-Aldrich, St Louis, MO, USA), containing 1 mg/mL of heat-killed and dried Mycobacterium tuberculosis in paraffin oil and mannide monooleate, into the tibiotarsal joint.[50] Briefly, the rats were lightly anesthetized with 2% isoflurane, the left leg skin was sterilized with 75% ethyl alcohol, and the lateral malleolus was located by palpation. A 28-gauge needle was then inserted vertically to penetrate the skin and turned distally for insertion into the articular cavity at the gap between the tibiofibular and tarsal bone until a distinct loss of resistance was felt. A volume of 50 μL of CFA was then injected (day 0). Control rats received 50 μL of saline solution (day 0) in the tibiotarsal joint.
(§2) The hybrid derivatives 26, 29, 30, and 31 (1, 10, and 30 mg/kg) were suspended in a 1% solution of carboxymethylcellulose (CMC) sodium salt and acutely per os administered starting from day 14 after CFA i.a. injection, when arthritis was well established. The H2S releaser 3 and CAI 15 were also administered alone or in coadministration at the equimolar dose of compound 30 30 mg/kg (13.23 and 17.71 mg/kg, respectively). The antihypersensitivity effects were evaluated over time by the Paw pressure and Incapacitance tests.
Weight-bearing changes were measured using an incapacitance apparatus (Linton Instrumentation, Norfolk, U.K.) to detect changes in postural equilibrium after a hind limb injury.[53],[54] Rats were trained to stand on their hind paws in a box with an inclined plane (65° from horizontal). This box was placed above the incapacitance apparatus. This allowed us to independently measure the weight that the animal applied on each hind limb. The value reported for each animal is the mean of five consecutive measurements. In the absence of hind limb injury, rats applied an equal weight on both hind limbs, indicating postural equilibrium, whereas an unequal distribution of weight on the hind limbs indicated a monolateral decreased pain threshold. Data are expressed as the difference between the weight applied to the limb contralateral to the injury and the weight applied to the ipsilateral limb (Δ weight).

[2] = system: rat model of arthritis induced by the intra-articular injection of complete Freund's adjuvant (CFA); assay: Paw pressure test, CFA-induced arthritis; type: in vivo; settings: for antihyperalgesic effect, Paw pressure test, 1 mg/kg: 1 mg/kg per os; for weight tolerated on the ipsilateral paw, Paw pressure test, 10 and 30 mg/kg: 10 and 30 mg/kg per os, from 15 min up to 45 min after treatment, vs CFA-treated animals
Procedure: as §1, §2
The nociceptive threshold of rats was determined with an analgesimeter (Ugo Basile, Varese, Italy), according to the method described by Leighton et al.[51] and Maresca et al.,[52] (doi: 10.1111/jphp.12828). Briefly, a constantly increasing pressure was applied to a small area of the dorsal surface of the hind paw using a blunt conical probe by a mechanical device. Mechanical pressure was increased until vocalization or a withdrawal reflex occurred while rats were lightly restrained. Vocalization or withdrawal reflex thresholds were expressed in grams. […]

hCA IX = hCA IX (Homo sapiens, UniProt Q16790); assay: Stopped-flow CO2 hydrase assay, hCA IX; settings: selectivity index, ratio of KIs
Procedure: as §3

rats = assay: Toxicity and Irwin test; type: in vivo, rat; set-up: key to Irwin test: Spontaneous activity / Irwin test: Straightening reflex / Irwin test: Hypo-hyperthermia / Irwin test: Cleaning / Irwin test: Curiosity / Irwin test: Reactivity / Irwin test: Convulsions: observer's semiquantitative score (0 to +4, −4 to 0, or −4 to +4); settings: 30 mg/kg; for Irwin test: Cyanosis / Irwin test: Exolphthalmos / Irwin test: Flush / Irwin test: Lacrimation / Irwin test: Pallor / Irwin test: Piloerection / Irwin test: Salivation / Irwin test: Writhing / Irwin test: Palpebral opening / Irwin test: Hypo-hyperthermia: Autonomic signes; for Irwin test: Cyanosis / Irwin test: Exolphthalmos / Irwin test: Flush / Irwin test: Lacrimation / Irwin test: Pallor / Irwin test: Piloerection / Irwin test: Salivation / Irwin test: Writhing / Irwin test: Passivity / Irwin test: Vocalization / Irwin test: Ataxia / Irwin test: Stereotipies / Irwin test: Straub tail / Irwin test: Tremors / Irwin test: Delayed death (48 h) / Irwin test: Immediate death: limits 0 - 4; for Irwin test: Palpebral opening / Irwin test: Cleaning / Irwin test: Curiosity / Irwin test: Reactivity / Irwin test: Spontaneous activity / Irwin test: Straightening reflex / Irwin test: Palpebral reflex / Irwin test: Convulsions: limits 4 - 0; for Irwin test: Hypo-hyperthermia: limits -4/+4; for Irwin test: Passivity / Irwin test: Vocalization / Irwin test: Cleaning / Irwin test: Curiosity / Irwin test: Reactivity / Irwin test: Spontaneous activity: Behaviour; for Irwin test: Ataxia / Irwin test: Stereotipies / Irwin test: Straightening reflex: Movement; for Irwin test: Physical strenght: Muscolar tone, limits 4 – 0; for Irwin test: Palpebral reflex: Reflexes; for Irwin test: Straub tail / Irwin test: Tremors / Irwin test: Convulsions: S.N.C. excitement; for Irwin test: Delayed death (48 h) / Irwin test: Immediate death: Toxicity
Procedure: Toxicity was evaluated after a single acute administration of 26, 29, 30, and 31 at 30 mg/kg. […] For the Irwin test, each rat was individually placed in a transparent cage (26 × 41 cm), and 26 neurobehavioral or physiological parameters were systematically assessed according to Irwin (1968)[55] and already reported by Berrino and colleagues in similar studies.[30] Behavioral, autonomic, and neurological manifestations produced by compound administration in rats were evaluated: motor displacement, motor reflexes, stereotypies, grooming, reaction to painful or environmental stimuli (analgesia and irritability), startle response, secretions, excretions, respiratory movements, skin color and temperature, piloerection, exophthalmos, eyelid and corneal reflexes, muscle tone, ataxia, tremors, head twitches, jumps, convulsions, Straub tail, and other signs or symptoms. For postural reflexes (righting reflex) and other signs such as piloerection, exophthalmia (exaggerated protrusion of the eyeball), ataxia, tremors, and Straub tail, only presence or absence was recorded. Skin color was evaluated qualitatively (pale, red, or purple); other signs were evaluated semiquantitatively, according to the observer’s personal scale (0 to +4, −4 to 0, or −4 to +4). The terms sedation and excitation express the final interpretation of a group of signs: reduced motor activity, reduced startle response, eyelid ptosis, and reduced response to manual manipulation, for the former; and increased motor activity, increased startle response, increased response to manual manipulation, and exophthalmia, for the latter. Hyperactivity includes running, jumping, and attempting to escape from the container. Trained observers were not informed about the specific treatment of each animal group carried out in this test.

SMILES | SI CA I/IV (hCA IV) | SI CA II/IV (hCA IV) | SI CA I/XII (hCA XII) | SI CA II/XII (hCA XII) | reduction of spontaneous pain, Incapacitance test [1] | antihyperalgesic effect, Paw pressure test, 1 mg/kg [2] | weight tolerated on the ipsilateral paw, Paw pressure test, 10 and 30 mg/kg [2] | SI CA I/IX (hCA IX) | Irwin test: Cyanosis (rats) | Irwin test: Exolphthalmos (rats) | Irwin test: Flush (rats) | Irwin test: Lacrimation (rats) | Irwin test: Pallor (rats) | Irwin test: Piloerection (rats) | Irwin test: Salivation (rats) | Irwin test: Writhing (rats) | Irwin test: Palpebral opening (rats) | Irwin test: Hypo-hyperthermia (rats) | Irwin test: Passivity (rats) | Irwin test: Vocalization (rats) | also measured
CSc1ccc(CN(CCc2ccc(S(N)(=O)=O)cc2)C(=O)c2ccc(-c3cssc3=S)cc2)cc1 [Compound 29, N-(4-(Methylthio)benzyl)-N-(4-sulfamoylphenethyl)-4-(3-thioxo-3H-1,2-dithiol-4-yl)benzamide] | 17.9 | 23.9 | 858 | 1148 | reduced spontaneous pain in a dose-dependent manner | ineffective | significantly increased the weight tolerated | 156 | 0 | 0 | 0 | 0 | 0 | 0 | 0 | 0 | 4 | 0 | 0 | 0 | SI CA II/IX (hCA IX): 209; Irwin test: Cleaning (rats): 0; Irwin test: Curiosity (rats): 4; Irwin test: Reactivity (rats): 4; Irwin test: Spontaneous activity (rats): 4; Irwin test: Ataxia (rats): 0; Irwin test: Stereotipies (rats): 0; Irwin test: Straightening reflex (rats): 4; Irwin test: Physical strenght (rats): 4; Irwin test: Palpebral reflex (rats): 4; Irwin test: Straub tail (rats): 0; Irwin test: Tremors (rats): 0; Irwin test: Convulsions (rats): 0; Irwin test: Delayed death (48 h) (rats): 0; Irwin test: Immediate death (rats): 0
NS(=O)(=O)c1ccc(CCN(Cc2cccc3ccccc23)C(=O)c2ccc(-c3cssc3=S)cc2)cc1 [Compound 30, N-(Naphthalen-1-ylmethyl)-N-(4-sulfamoylphenethyl)-4-(3-thioxo-3H-1,2-dithiol-4-yl)benzamide] | >41.0 | 18.3 | >1428 | 637 | slightly greater efficacy at 10 mg/kg in comparison to the dose of 30 mg/kg | ineffective | significantly increased the weight tolerated | >641 | 0 | 0 | 0 | 0 | 0 | 0 | 0 | 0 | 4 | 0 | 0 | 0 | effect of the lowest dose, Incapacitance test ([1]; 1 mg/kg per os): ineffective; antihyperalgesic effect, Paw pressure test, 30 mg/kg ([2]; 30 mg/kg per os, day 14 after CFA): greater antihyperalgesic action with respect to 3, 15, and their co-administration; SI CA II/IX (hCA IX): 286; Irwin test: Cleaning (rats): 0; Irwin test: Curiosity (rats): 4; Irwin test: Reactivity (rats): 4; Irwin test: Spontaneous activity (rats): 4; Irwin test: Ataxia (rats): 0; Irwin test: Stereotipies (rats): 0; Irwin test: Straightening reflex (rats): 4; Irwin test: Physical strenght (rats): 4; Irwin test: Palpebral reflex (rats): 4; Irwin test: Straub tail (rats): 0; Irwin test: Tremors (rats): 0; Irwin test: Convulsions (rats): 0; Irwin test: Delayed death (48 h) (rats): 0; Irwin test: Immediate death (rats): 0
NS(=O)(=O)c1ccc(CCN(Cc2csc3ccccc23)C(=O)c2ccc(-c3cssc3=S)cc2)cc1 [Compound 31, N-(Benzo[b]thiophen-3-ylmethyl)-N-(4-sulfamoylphenethyl)-4-(3-thioxo-3H-1,2-dithiol-4-yl)benzamide] | >208 | 52 and 51.7 | >1204 | 299 | reduced spontaneous pain in a dose-dependent manner | ineffective | significantly increased the weight tolerated | >4167 | 0 | 0 | 0 | 0 | 0 | 0 | 0 | 0 | 4 | 0 | 0 | 0 | Irwin test: Cleaning (rats): 0; Irwin test: Curiosity (rats): 4; Irwin test: Reactivity (rats): 4; Irwin test: Spontaneous activity (rats): 4; Irwin test: Ataxia (rats): 0; Irwin test: Stereotipies (rats): 0; Irwin test: Straightening reflex (rats): 4; Irwin test: Physical strenght (rats): 4; Irwin test: Palpebral reflex (rats): 4; Irwin test: Straub tail (rats): 0; Irwin test: Tremors (rats): 0; Irwin test: Convulsions (rats): 0; Irwin test: Delayed death (48 h) (rats): 0; Irwin test: Immediate death (rats): 0
